Like-named read-outs stand apart in the source and are kept apart here. Numbered stars: 1 amine (or outer) side, 2 acyl side, 3 side chain; on linkers, the order of the positions; unused ones are H or OH. Bridge positions count the residues as written; N and C are the ends. Square brackets hold non-standard residues; d marks the D form. Peptide text beside a SMILES is read from it. Trp(7-Me) = Cc1cccc2c(C[C@H](N)C(=O)O)c[nH]c12; Abu(4-yl) = O=C([C@H](CC[*:3])N[*:1])[*:2]; 2Nal = N[C@@H](Cc1ccc2ccccc2c1)C(=O)O; AEF = NCCOc1ccc(C[C@H](N)C(=O)O)cc1; Pen = CC(C)(S)[C@H](N)C(=O)O; αMeK = C[C@](N)(CCCCN)C(=O)O; Aib = CC(C)(N)C(=O)O; βAla = NCCC(=O)O
What was measured:
in vitro [1] = details: both, SD, rat; for half-life at 20 μM: plasma (EDTA)
IL-23R = biological target: T1, IL-23R (Homo sapiens, UniProt Q5VWK5); test: DB cells IL23R pSTAT3 cell assay (pStat3 HTRF); type: cell-based
T1 sequence (Q5VWK5 24-629): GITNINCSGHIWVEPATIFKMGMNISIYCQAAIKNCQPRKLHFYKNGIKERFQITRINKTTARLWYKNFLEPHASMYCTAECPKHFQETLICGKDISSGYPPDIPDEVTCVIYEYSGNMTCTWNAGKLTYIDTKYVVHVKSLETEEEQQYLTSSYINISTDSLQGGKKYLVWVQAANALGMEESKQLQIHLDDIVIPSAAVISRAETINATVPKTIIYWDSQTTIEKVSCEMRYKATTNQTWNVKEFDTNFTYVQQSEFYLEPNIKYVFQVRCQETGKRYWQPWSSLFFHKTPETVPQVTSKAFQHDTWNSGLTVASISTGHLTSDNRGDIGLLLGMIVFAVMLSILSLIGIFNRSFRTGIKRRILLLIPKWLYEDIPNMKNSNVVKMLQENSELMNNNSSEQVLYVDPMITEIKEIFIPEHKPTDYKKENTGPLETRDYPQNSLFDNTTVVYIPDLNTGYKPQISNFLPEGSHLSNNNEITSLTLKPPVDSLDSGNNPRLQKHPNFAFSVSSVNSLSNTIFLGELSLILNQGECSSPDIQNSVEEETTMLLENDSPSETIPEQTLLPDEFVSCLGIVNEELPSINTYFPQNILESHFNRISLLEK
Outline: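 DB cells (5×10E5/well, RPMI-1640 + 10% FBS) stimulated with 0.5 nM final IL-23 plus serially diluted test peptides for 30 min at 37 °C, 5% CO2. Phospho-STAT3 (Tyr705) in lysates measured by HTRF using a two-plate protocol.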

in vitro [2] = details: human, pH 6.8; for half-life at 20 μM: 20% fecal homogenate (supernatant), anaerobic
in vitro [3] = details: cynomolgus monkey, pH 6.8; for half-life at 20 μM: 20% fecal homogenate (supernatant), anaerobic
[4] = Table E3, DB cells, IL-23 0.5 nM, 30 minutes at 37° C., read-out: pStat3 HTRF (IC50)

Row | SMILES | half-life at 20 μM (in vitro [1]) [h] | IC50 (IL-23R; [4]) [nM] | half-life at 20 μM (in vitro [2]) [h] | half-life at 20 μM (in vitro [3]) [h] | half-life (in vitro [1]; plasma) [h] | half-life (in vitro [2]; tissue homogenate) [h] | half-life (in vitro [3]; tissue homogenate) [h] | IC50 (IL-23R) [nM]
1 | CC(=O)NCCCC[C@H](NC(=O)[C@](C)(CC(C)C)NC(=O)[C@H](Cc1ccc2ccccc2c1)NC(=O)[C@H](Cc1ccc(OCCN)cc1)NC(=O)[C@H]1NC(=O)[C@H](CCC(N)=O)NC(=O)[C@H](Cc2c[nH]c3c(C)cccc23)NC(=O)[C@H]([C@@H](C)O)NC(=O)[C@H](CC(N)=O)NC(=O)[C@@H](NC(C)=O)C(C)(C)SSC1(C)C)C(=O)N[C@H](C)C(=O)NCCC(N)=O [compound 209] | 1 | 1 to 10 | > 24 | > 24 | – | – | – | –
2 | CC(=O)NCCCC[C@H](NC(=O)[C@](C)(CC(C)C)NC(=O)[C@H](Cc1ccc2ccccc2c1)NC(=O)[C@H](Cc1ccc(OCCN)cc1)NC(=O)[C@H]1NC(=O)[C@H](CCC(N)=O)NC(=O)[C@H](Cc2c[nH]c3c(C)cccc23)NC(=O)[C@H]([C@@H](C)O)NC(=O)[C@H](CC(N)=O)NC(=O)[C@@H](NC(C)=O)C(C)(C)SSC1(C)C)C(=O)N[C@H](CC(C)C)C(=O)NCCC(N)=O [compound 210] | < 0.3 | 10 to 100 | > 24 | > 24 | – | – | – | –
3 | CC(=O)NCCCC[C@H](NC(=O)[C@](C)(CC(C)C)NC(=O)[C@H](Cc1ccc2ccccc2c1)NC(=O)[C@H](Cc1ccc(OCCN)cc1)NC(=O)[C@H]1NC(=O)[C@H](CCC(N)=O)NC(=O)[C@H](Cc2c[nH]c3c(C)cccc23)NC(=O)[C@H]([C@@H](C)O)NC(=O)[C@H](CC(N)=O)NC(=O)[C@@H](NC(C)=O)C(C)(C)SSC1(C)C)C(=O)N[C@H](Cc1ccccc1)C(=O)NCCC(N)=O [compound 213] | < 0.3 | 10 to 100 | > 24 | > 24 | – | – | – | –
4 | CC(=O)NCCCC[C@H](NC(=O)[C@](C)(CC(C)C)NC(=O)[C@H](Cc1ccc2ccccc2c1)NC(=O)[C@H](Cc1ccc(OCCN)cc1)NC(=O)[C@H]1NC(=O)[C@H](CCC(N)=O)NC(=O)[C@H](Cc2c[nH]c3c(C)cccc23)NC(=O)[C@H]([C@@H](C)O)NC(=O)[C@H](CC(N)=O)NC(=O)[C@@H](NC(C)=O)C(C)(C)SSC1(C)C)C(=O)N[C@H](Cc1c[nH]cn1)C(=O)NCCC(N)=O [compound 215] | – | 1 to 10 | – | – | 2 | > 24 | > 24 | –
5 | CC(=O)N[C@@H]1C(=O)N[C@@H](CC(N)=O)C(=O)N[C@@H]([C@@H](C)O)C(=O)N[C@@H](Cc2c[nH]c3c(C)cccc23)C(=O)N[C@@H](CCC(N)=O)C(=O)N[C@H](C(=O)N[C@@H](Cc2ccc(OCCN)cc2)C(=O)N[C@@H](Cc2ccc3ccccc3c2)C(=O)N[C@@](C)(CC(C)C)C(=O)NCC(=O)N2CCC[C@H]2C(=O)NCCC(N)=O)C(C)(C)SSC1(C)C [compound 219] | 3 | 10 to 100 | 16 | 24 | – | – | – | –
6 | CC(=O)N[C@@H]1C(=O)N[C@@H](CC(N)=O)C(=O)N[C@@H]([C@@H](C)O)C(=O)N[C@@H](Cc2c[nH]c3c(C)cccc23)C(=O)N[C@@H](CCC(N)=O)C(=O)N[C@H](C(=O)N[C@@H](Cc2ccc(OCCN)cc2)C(=O)N[C@@H](Cc2ccc3ccccc3c2)C(=O)N[C@@](C)(CC(C)C)C(=O)NCC(=O)N2CCC[C@@H]2C(=O)NCCC(N)=O)C(C)(C)SSC1(C)C [compound 220] | 1 | > 100 | > 24 | 21 | – | – | – | –
7 | CC(=O)NCCCC[C@H](NC(=O)[C@](C)(CCCCN)NC(=O)[C@H](Cc1ccc2ccccc2c1)NC(=O)[C@H](Cc1ccc(OCCN)cc1)NC(=O)[C@H]1NC(=O)[C@H](CCC(N)=O)NC(=O)[C@H](Cc2c[nH]c3cc(Cl)ccc23)NC(=O)[C@H]([C@@H](C)O)NC(=O)[C@H](CC(N)=O)NC(=O)[C@@H](NC(C)=O)C(C)(C)SSC1(C)C)C(=O)N[C@@H](CC(N)=O)C(=O)NCCC(N)=O [compound 228] | > 24 | 10 to 100 | > 24 | 13 | – | – | – | –
8 | CC(=O)NCCCC[C@H](NC(=O)[C@](C)(CCCCN)NC(=O)[C@H](Cc1ccc2ccccc2c1)NC(=O)[C@H](Cc1ccc(OCCN)cc1)NC(=O)[C@H]1NC(=O)[C@H](CCC(N)=O)NC(=O)[C@H](Cc2c(C(C)(C)C)[nH]c3c(C(C)(C)C)cc(C(C)(C)C)cc23)NC(=O)[C@H]([C@@H](C)O)NC(=O)[C@H](CC(N)=O)NC(=O)[C@@H](NC(C)=O)C(C)(C)SSC1(C)C)C(=O)N[C@@H](CC(N)=O)C(=O)NCCC(N)=O [compound 233] | > 24 | > 100 | > 24 | > 24 | – | – | – | –
9 | CC(=O)NCCCC[C@H](NC(=O)[C@](C)(CCCCN)NC(=O)[C@H](Cc1ccc2ccccc2c1)NC(=O)[C@H](Cc1ccc(OCCN)cc1)NC(=O)[C@H]1NC(=O)[C@H](CCC(N)=O)NC(=O)[C@H](Cc2c[nH]c3c(C)cccc23)NC(=O)[C@H]([C@@H](C)O)NC(=O)[C@H](CCC(N)=O)NC(=O)[C@@H](NC(C)=O)C(C)(C)SSC1(C)C)C(=O)N[C@@H](CC(N)=O)C(=O)NCCC(N)=O [compound 237] | > 24 | 1 to 10 | > 24 | 6 | – | – | – | –
10 | CC(=O)NCCCC[C@H](NC(=O)[C@](C)(CCCCN)NC(=O)[C@H](Cc1ccc2ccccc2c1)NC(=O)[C@H](Cc1ccc(OCCN)cc1)NC(=O)[C@H]1NC(=O)C(C)(C)NC(=O)[C@H](Cc2c[nH]c3c(C)cccc23)NC(=O)[C@H]([C@@H](C)O)NC(=O)[C@H](CC(N)=O)NC(=O)[C@@H](NC(C)=O)C(C)(C)SSC1(C)C)C(=O)N[C@@H](CC(N)=O)C(=O)NCCC(N)=O [compound 241] (Ac-[Pen]NT[Trp(7-Me)][Aib][Pen][AEF][2Nal][αMeK]K(Ac)N[βAla]-NH2; disulfide 1-6) | > 24 | 10 to 100 | > 24 | 15 | – | – | – | –
11 | CC(=O)NCCCC[C@@H]1NC(=O)[C@H](Cc2c[nH]c3c(C)cccc23)NC(=O)[C@H]([C@@H](C)O)NC(=O)[C@H](CC(N)=O)NC(=O)[C@@H](NC(C)=O)C(C)(C)SSC(C)(C)[C@@H](C(=O)N[C@@H](Cc2ccc(OCCN)cc2)C(=O)N[C@@H](Cc2ccc3ccccc3c2)C(=O)N[C@@](C)(CCCCN)C(=O)N[C@@H](CCCCNC(C)=O)C(=O)N[C@@H](CC(N)=O)C(=O)N[C@H](CC(C)C)C(N)=O)NC1=O [compound 245] | > 24 | < 1 | > 24 | > 24 | – | – | – | –
12 | CC(=O)NCCCC[C@@H]1NC(=O)[C@H](Cc2c[nH]c3c(C)cccc23)NC(=O)[C@H]([C@@H](C)O)NC(=O)[C@H](CC(N)=O)NC(=O)[C@@H](NC(C)=O)C(C)(C)SSC(C)(C)[C@@H](C(=O)N[C@@H](Cc2ccc(OCCN)cc2)C(=O)N[C@@H](Cc2ccc3ccccc3c2)C(=O)N[C@@](C)(CCCCN)C(=O)N[C@@H](CCCCNC(C)=O)C(=O)N[C@@H](CC(N)=O)C(=O)N(C)[C@@H](CCCNC(=N)N)C(N)=O)NC1=O [compound 246] | > 24 | 1 to 10 | > 24 | > 24 | – | – | – | –
13 | CC(=O)NCCCC[C@@H]1NC(=O)[C@H](Cc2c[nH]c3c(C)cccc23)NC(=O)[C@H]([C@@H](C)O)NC(=O)[C@H](CC(N)=O)NC(=O)[C@@H](NC(C)=O)C(C)(C)SSC(C)(C)[C@@H](C(=O)N[C@@H](Cc2ccc(OCCN)cc2)C(=O)N[C@@H](Cc2ccc3ccccc3c2)C(=O)N[C@@](C)(CCCCN)C(=O)N[C@@H](CCCCNC(C)=O)C(=O)N[C@@H](CC(N)=O)C(=O)N[C@H](CC(N)=O)Cc2ccccc2)NC1=O [compound 247] | > 24 | – | > 24 | > 24 | – | – | – | 1 to 10
14 | CC(=O)NCCCC[C@H](NC(=O)C1(NC(=O)[C@H](Cc2ccc3ccccc3c2)NC(=O)[C@H](Cc2ccc(OCCN)cc2)NC(=O)[C@H]2NC(=O)[C@H](CCC(N)=O)NC(=O)[C@H](Cc3c[nH]c4c(C)cccc34)NC(=O)[C@H]([C@@H](C)O)NC(=O)[C@H](CC(N)=O)NC(=O)[C@@H](NC(C)=O)C(C)(C)SSC2(C)C)CCC1)C(=O)N[C@@H](CC(N)=O)C(=O)NCCC(N)=O [compound 277] | 6 | < 1 | – | 5 | – | – | – | –
15 | CC(=O)NCCCC[C@@H]1NC(=O)[C@H](Cc2c[nH]c3c(C)cccc23)NC(=O)[C@H]([C@@H](C)O)NC(=O)[C@H](CCC(N)=O)NC(=O)[C@@H](NC(=O)[C@@H](CCCNC(=N)N)NC(C)=O)CCSC[C@@H](C(=O)N[C@@H](Cc2ccc(OCCN)cc2)C(=O)N[C@@H](Cc2ccc3ccccc3c2)C(=O)N[C@@](C)(CCCCN)C(=O)N[C@@H](CCCCNC(C)=O)C(=O)N[C@@H](CC(N)=O)C(N)=O)NC1=O [compound 326] (Ac-[dR][Abu(4-yl)]QT[Trp(7-Me)]K(Ac)C[AEF][2Nal][αMeK]K(Ac)N-NH2; thioether 2-7) | – | 10 to 100 | 11 | 11 | – | – | – | –
